Reference: patent US20240270727A1, “NEW SUBSTITUTED PYRIDINES AS FUNGICIDE” (BASF SE, priority 2021, published 2024)

Experiments:
Leptosphaeria nodorum = assay: Comparative Example 2: activity against wheat leaf spots caused by Leptosphaeria nodorum (microtiter plate); type: cell-based; settings: 7 days after inoculation
Septoria tritici = assay: Comparative Example 1: activity against leaf blotch on wheat caused by Septoria tritici (microtiter plate); type: cell-based; settings: 7 days after inoculation
Ustilago maydis = assay: Example 12: activity against Ustilago maydis in the microtiterplate test; settings: 31 ppm, DOB media pH 7
Description: The stock solutions were mixed according to the ratio, pipetted onto a micro titer plate (MTP) and diluted with water to the stated concentrations. A spore suspension of the Ustilago maydis isolates in a DOB media (ph 7) was then added.

Botrytis cinerea = assay: Example 1: activity against the grey mold Botrytis cinerea in the microtiterplate test; type: cell-based; settings: 31 ppm, 7 days after inoculation, relative to active compound-free control (100%)
Fusarium culmorum = assay: Example 2: activity against Fusarium culmorum in the microtiterplate test; settings: 31 ppm, 7 days after inoculation, relative to active compound-free control (100%)
Description: The stock solutions were mixed according to the ratio, pipetted onto a micro titer plate (MTP) and diluted with water to the stated concentrations. A spore suspension of Fusarium culmorum in an aqueous biomalt or yeast-bactopeptone-glycerine or DOB solution was then added. The plates were placed in a water vapor-saturated chamber at a temperature of 18° C. Using an absorption photometer, the MTPs were measured at 405 nm 7 days after the inoculation.

Row | Compound | Growth (%) at 8 pm LEPTNO (Leptosphaeria nodorum) | Growth (%) at 125 pm SEPTTR (Septoria tritici) | growth of the pathogen (Ustilago maydis) | growth of the pathogen (Botrytis cinerea) | growth of the pathogen (Fusarium culmorum)
1 | Cc1cc(C2=NCCOc3ccccc32)cnc1C [D1, reference compound] | 45% | 98% |  |  | 
2 | Cc1cc(C2=NC(C(C)(C)C)COc3ccccc32)cnc1C (stereo not drawn) [Ex-1] |  |  | 0% | 0% | 
3 | Cc1cc(C2=NCC(C)(C)Oc3ccccc32)cnc1C [Ex-2] | 4% | 51% |  | 0% | 1%
4 | Cc1cc(C2=NC(C)(C)C(C)(C)Oc3ccccc32)cnc1C [Ex-3] | 30% | 64% |  | 0% | 1%
5 | Cc1cc(C2=NC(C)(C)C(C)(C)Oc3ccccc32)cnc1C(F)F [Ex-4] |  |  |  | 0% | 
6 | Cc1cc(C2=NCC(C)(C)Oc3ccccc32)cnc1C(F)F [Ex-8] |  |  |  | 0% | 
7 | COCC1(C)Oc2ccccc2C(c2cnc(C)c(C)c2)=NC1(C)C (stereo not drawn) [Ex-9] |  |  |  | 0% | 
8 | COCC1(C)Oc2ccccc2C(c2cnc(C(F)F)c(C)c2)=NC1(C)C (stereo not drawn) [Ex-10] |  |  |  | 0% | 
9 | Cc1cc(C2=NC(C)C(C)(C)Oc3ccccc32)cnc1C (stereo not drawn) [Ex-11] | 6% | 52% |  | 0% | 
10 | Cc1cc(C2=NC(C(C)(C)C)C(C)Oc3ccccc32)cnc1C (stereo not drawn) [Ex-24] |  |  | 0% |  | 
11 | Cc1cc(C2=NC(=O)C3(CC3)Oc3c(F)cccc32)cnc1C(F)F [Ex-41] |  |  | 0% |  | 
